Results reported in patent US6673576B1, “Process for producing nucleic acids” (priority 1995, dated 2004).

Assays:
[1] = biological target: T1, inosine-guanosine kinase derived from Exiguobacterium acetylicum (Exiguobacterium acetylicum, UniProt O24767); assay: Phosphate donor specificity (nucleoside triphosphates) of the purified kinase; type: biochemical; details: for use as phosphate donor (in words): 5 mM nucleoside triphosphate; for Relative activity: Nucleoside triphosphate (5 mM) instead of ATP, ATP = 100
Description: (§1) Fifty microliter of this reaction mixture was used as a basic composition and the reaction was carried out at 30° C. for 10 minutes. The enzyme had the following properties.
The reaction was performed by using 5 mM of each of various nucleoside triphosphates instead of ATP, and the possible phosphate donors were examined.

[2] = biological target: T1, inosine-guanosine kinase derived from Exiguobacterium acetylicum; assay: Effect of metal ions on the purified kinase; type: biochemical; details: for inhibition of the enzyme by metal ions (in words): 1 mM metal ions; for Relative activity: Metal salts (1 mM) present in the reaction mixture, not added = 100
Description: as §1

[3] = biological target: T1, inosine-guanosine kinase derived from Exiguobacterium acetylicum; assay: Substrate specificity (nucleoside as phosphate receptor) of the purified kinase; type: biochemical; details: for use as phosphate receptor (in words): 0.5 mM nucleoside; for Relative activity: Nucleoside (0.5 mM) instead of guanosine, [γ-32P]-ATP, guanosine = 100
Description: as §1
The reaction was performed by using 0.5 mM of each of various nucleosides instead of guanosine and [Υ-^32P]-ATP instead of ATP. The thus-formed nucleoside 5′-phosphate was measured.

[4] = biological target: T1, inosine-guanosine kinase derived from Exiguobacterium acetylicum; assay: Metal requirement of the purified kinase; type: biochemical; details: for Relative activity: Metal salts (5 mM) instead of magnesium chloride, MgCl2 = 100; for metal requirement (in words): metal ions replacing magnesium chloride
Description: as §1
The reaction was performed by changing magnesium chloride to various metal ions in the reaction solution.

[5] = substrate: Nc1nc2c(ncn2[C@@H]2O[C@H](CO)[C@@H](O)[C@H]2O)c(=O)[nH]1; assay: Km values of the purified kinase; type: biochemical, Exiguobacterium acetylicum; details: other: substrate concentration varied; pH 7.5; 30.0 °C
Description: as §1

[6] = substrate: OC[C@H]1O[C@@H](n2cnc3c(O)ncnc32)[C@H](O)[C@@H]1O; assay: Km values of the purified kinase; type: biochemical, Exiguobacterium acetylicum; details: other: substrate concentration varied; pH 7.5; 30.0 °C
Description: as §1

[7] = substrate: Nc1ncnc2c1ncn2[C@@H]1O[C@H](COP(=O)(O)OP(=O)(O)OP(=O)(O)O)[C@@H](O)[C@H]1O; assay: Km values of the purified kinase; type: biochemical, Exiguobacterium acetylicum; details: other: for ATP when guanosine was used as a substrate; pH 7.5; 30.0 °C
Description: as §1

[8] = pH and temperature optimum and stability of the purified kinase; type: biochemical, Exiguobacterium acetylicum
Description: as §1
The reaction was performed by changing the buffer to 100 mM of sodium acetate-acetic acid buffer (pH 4.2-5.6), 2-morphorinoethanesulfonic acid (hereinafter referred to as “MES”)-sodium hydroxide buffer (pH 5.4-6.3), 3-morphorinopropanesulfonic acid (MOPS)-sodium hydroxide buffer (pH 6.3-7.2), Tris-hydrochloride buffer (pH 7.2-8.8), cyclohexylaminopropanesulfonic acid (hereinafter referred to as “CAPS”)- sodium hydroxide buffer (pH 8.8-10.4) or glycine-sodium hydroxide buffer (pH 10.3-11.0). The optimum pH was between 7.7 and 9.9.
The enzyme was treated at room temperature for 30 minutes with 250 mM sodium acetate-acetate buffer ([…]), MES-sodium hydroxide buffer (pH 5.4-6.4), MOPS-sodium hydroxide buffer (pH 6.3-7.3), Tris-hydrochloride buffer (pH 7.2-8.8), CAPS-sodium hydroxide buffer (pH 8.9-10.4) or glycine-sodium hydroxide buffer (pH 10.5-13.3), each containing 2.5 mg/ml of bovine- serum albumin, 25 mM potassium chloride, 0.25 mM dithiothreitol and 5% glycerol. Then, the activity of the enzyme was measured. As a result, the activity of the enzyme was stable within the pH range between 6.7 and 12.1
The reaction was performed within the temperature range between 16° C. and 60° C. […]

Nc1ncnc2c1ncn2[C@@H]1O[C@H](COP(=O)(O)OP(=O)(O)OP(=O)(O)O)[C@@H](O)[C@H]1O [adenosine triphosphate]
use as phosphate donor (in words) [1]: used as the phosphate donor
Relative activity [1]: 100%

[Cl][Hg][Cl] [HgCl2]
inhibition of the enzyme by metal ions (in words) [2]: strongly inhibited
Relative activity [2]: 22%

O=c1ccn([C@@H]2O[C@H](COP(=O)(O)OP(=O)(O)OP(=O)(O)O)[C@@H](O)[C@H]2O)c(=O)[nH]1 [uridine triphosphate]
Relative activity [1]: 4%

OC[C@H]1O[C@@H](n2cnc3c(O)ncnc32)[C@H](O)[C@@H]1O [inosine]
use as phosphate receptor (in words) [3]: used as a phosphate receptor
Relative activity [3]: 5%

O=c1[nH]c(=O)c2ncn([C@@H]3O[C@H](CO)[C@@H](O)[C@H]3O)c2[nH]1 [xanthosine]
Relative activity [3]: 0%

Nc1nc2c(ncn2[C@@H]2O[C@H](COP(=O)(O)OP(=O)(O)OP(=O)(O)O)[C@@H](O)[C@H]2O)c(=O)[nH]1 [guanosine triphosphate]
use as phosphate donor (in words) [1]: used as the phosphate donor
Relative activity [1]: 59%

Nc1ncnc2c1ncn2[C@@H]1O[C@H](CO)[C@@H](O)[C@H]1O [adenosine]
Relative activity [3]: 0%

O.O.O.O.[Cl][Mn][Cl] [MnCl2.4H2O]
Relative activity [2]: 81%
Relative activity [4]: 55%
metal requirement (in words) [4]: the reaction proceeded

O.O.O.O.O.O.[Cl][Ni][Cl] [NiCl2.6H2O]
Relative activity [2]: 113%
Relative activity [4]: 1%

[Cl-].[Cl-].[Zn+2] [ZnCl2]
inhibition of the enzyme by metal ions (in words) [2]: also inhibited
Relative activity [2]: 58%
Relative activity [4]: 1%

[Ba+2].[Cl-].[Cl-] [BaCl2]
Relative activity [2]: 106%

O.O.O.O.O.O.O.O=S(=O)([O-])[O-].[Fe+2] [FeSO4.7H2O]
Relative activity [2]: 95%
Relative activity [4]: 24%
metal requirement (in words) [4]: the reaction proceeded

Nc1nc2c(ncn2[C@@H]2O[C@H](CO)[C@@H](O)[C@H]2O)c(=O)[nH]1 [guanosine]
use as phosphate receptor (in words) [3]: used as a phosphate receptor
Relative activity [3]: 100%

Nc1nc2c(ncn2[C@H]2C[C@H](O)[C@@H](COP(=O)(O)OP(=O)(O)OP(=O)(O)O)O2)c(=O)[nH]1 [2′-deoxyguanosine triphosphate]
use as phosphate donor (in words) [1]: used as the phosphate donor
Relative activity [1]: 61%

Nc1ncnc2c1ncn2[C@H]1C[C@H](O)[C@@H](COP(=O)(O)OP(=O)(O)OP(=O)(O)O)O1 [2′-deoxyadenosine triphosphate]
use as phosphate donor (in words) [1]: used as the phosphate donor
Relative activity [1]: 71%

O.O.O.O.O.O.[Cl-].[Cl-].[Mg+2] [MgCl2.6H2O]
Relative activity [4]: 100%
metal requirement (in words) [4]: the reaction proceeded

O.O.O.O.O.O.[Cl-].[Cl-].[Co+2] [CoCl2.6H2O]
Relative activity [2]: 103%
Relative activity [4]: 36%
metal requirement (in words) [4]: the reaction proceeded

Nc1ncnc2c1ncn2[C@H]1C[C@H](O)[C@@H](CO)O1 [2′-deoxyadenosine]
Relative activity [3]: 0%

O.O.[Ca+2].[Cl-].[Cl-] [CaCl2.2H2O]
Relative activity [2]: 71%
Relative activity [4]: 1%

[Cl][Cd][Cl] [CdCl2]
inhibition of the enzyme by metal ions (in words) [2]: also inhibited
Relative activity [2]: 43%

O.O.[Cl][Cu][Cl] [CuCl2.2H2O]
inhibition of the enzyme by metal ions (in words) [2]: strongly inhibited
Relative activity [2]: 25%

O.O.O.O.O.O.O.O=S(=O)([O-])[O-].[Mg+2] [MgSO4.7H2O]
Relative activity [2]: 110%
Relative activity [4]: 107%

Nc1nc2c(ncn2[C@H]2C[C@H](O)[C@@H](CO)O2)c(=O)[nH]1 [2′-deoxyguanosine]
use as phosphate receptor (in words) [3]: used as a phosphate receptor
Relative activity [3]: 4%

Nc1ccn([C@@H]2O[C@H](COP(=O)(O)OP(=O)(O)OP(=O)(O)O)[C@@H](O)[C@H]2O)c(=O)n1 [cytidine triphosphate]
Relative activity [1]: 6%

B1: inosine-guanosine kinase derived from Exiguobacterium acetylicum (Exiguobacterium acetylicum) (protein)
chain: MNKIAVIGKVFVDIKGTSFAPLHKDAKNVGDITFSNGGTGRNVAQNLAVLGNEVRFISTVTNDQIGVGVLDELKSYGANVDHVEMLEDHGMGMWLAVMDNEGDLQTSISKQPDAKLLEEAILRQSIYALDGVDAVAIDLDLSVTVLERLIHLCRKMELPLFGVCGHLSVIERNRHLLQGFTGFICSREEAEILSDLSIVTVEDAIHVANELAKKGAPFTVVTMSELGAVYVDRRTATSGHVGTKKVKVVDSTGAGDSFFSAVLSELTQEKSAEEALKLGMKVAAEVIASTENGLVPEMLDALQ
Km [5]: 30 µM
Km [6]: 1000 µM
Km [7]: 1600 µM
residual activity maintained ([8]; treatment at 25° C. or lower for 30 minutes): ≥ 50%
temperature at which the enzyme was inactivated ([8]; treatment for 30 minutes at 4 to 60° C.): ≥ 40 °C
